Experimental data reported in patent US20150057366A1, “SYNTHESIS OF ELEMICIN AND TOPICAL ANALGESIC COMPOSITIONS” (priority 2012, published 2015).

Test: Preliminary work by the applicant on topical analgesic effectiveness of elemicin compositions
Format: in vivo

| Compound | elemicin content compositions require to start being effective as topical analgesics (topical composition, 30% more preferred, preliminary work) | analgesic effectiveness at the concentrations occurring in natural oils (topical, around 2.4-3.0% in nutmeg and manila elemi oils, up to around 10-14% in mace and some elemi oil) | effectiveness in analgesic compositions (topical analgesic compositions, work thus far by the inventor) |
| --- | --- | --- | --- |
| C=CCc1cc(OC)c(OC)c(OC)c1 [elemicin, 1,2,3-Trimethoxy-5-prop-2-enylbenzene] | at least 20% | analgesic effectiveness does not occur at such low doses |  |
| C/C=C/c1cc(OC)c(OC)c(OC)c1 [iso-elemicin] |  |  | also effective |
